Values quoted from earlier work, collected in the CATMoS acute toxicity set (Mansouri et al. 2021).
“And” between values parts separate entries of the source, which are not always exact repeats. Equal values may be shown once.

Assay: rat acute oral toxicity
Details: in vivo

Row | Compound | LD50
1 | CCOP(=S)(OCC)Oc1ccc(SC)c(C)c1 | 14 mg/kg
2 | C1CCCNCC1 | 20.7 mg/kg
3 | O=C=Nc1ccccc1C(F)(F)F | 7000 mg/kg
4 | c1ccc(C2(c3ccccc3)COC(c3ccccc3)(C3CCCCN3)OC2)cc1 (stereo unspecified) | 300 mg/kg
5 | CC(=O)Nc1ccc([N+](=O)[O-])c(Cl)n1 | 1940 mg/kg
6 | O=c1[nH]c2ccc(Br)cc2o1 | 1000 mg/kg
7 | CC(C=O)=Cc1ccccc1 | 2050 mg/kg
8 | CC(CN(CCN(CC(C)OB(O)O)CC(C)OB(O)O)CC(C)OB(O)O)OB(O)O (stereo unspecified) | 4930 mg/kg
9 | CCC(C(=O)N1CCCC1C)(c1ccccc1)c1ccccc1 (stereo unspecified) | 326 mg/kg
10 | CCOc1ccc(N(N=O)C(C)=O)cc1 | 21 mg/kg
11 | O=C1c2cc(Cl)ccc2OC2CCON12 (stereo unspecified) | 1550 mg/kg
12 | CC(=O)C=Cc1ccc(-c2ccccc2)cc1 | 2230 mg/kg
13 | O=c1n(CCCN2CCN(c3cccc(Cl)c3)CC2)nc2ccccn12 | 690 mg/kg
14 | FC(F)(F)c1nc2ccc(-c3ccccc3)cc2[nH]1 | 69 mg/kg
15 | CC(C)CCCCCOP(OCCCCCC(C)C)OCCCCCC(C)C | 9200 mg/kg
16 | CCOC(=O)C1=C(COCCOCCN)NC(C)=C(C(=O)OC)[C@@H]1c1cccc(Cl)c1Cl | 136 mg/kg
17 | Cc1ccc(SN2C(=O)c3ccccc3C2=O)cc1 | 5060 mg/kg
18 | CCCCCCCCCCCCc1ccc(C)c(C[N+](C)(C)C)c1 | 389 mg/kg
19 | O=C(CCl)CC(=O)Nc1ccccc1 | 1820 mg/kg
20 | CC(C)=CCCC(C)CCO (stereo unspecified) | 3450 mg/kg
21 | BrC=Cc1ccccc1 | 1250 mg/kg
22 | O=Cc1ccc(O)cc1 | 2250 mg/kg

Row | Compound | LD50
23 | CNc1ccc(C(O)(c2ccc(N(C)C)cc2)c2ccc(N(C)C)cc2)cc1 | 500 mg/kg
24 | N=C(S)NN=Nc1ccc(Cl)c(Cl)c1 | 1 mg/kg
25 | CC1=C(C(=O)OCOC(=O)C(C)(C)C)N2C(=O)[C@@H](NC(=O)C(N)c3ccccc3)[C@H]2SC1 (stereo partly specified) | 4000 mg/kg
26 | c1ccc(C2=NCOCS2)cc1 | 650 mg/kg
27 | NCc1cc(O)no1 | 45 mg/kg
28 | CCCCNC(=O)n1c(NC(=O)OC)nc2ccccc21 | 10000 mg/kg
29 | CCCCC(CC)CCC(CCC(CC)CC)OS(=O)(=O)O (stereo unspecified) | 1430 mg/kg
30 | NC(=O)OCC(O)COc1ccc(Cl)cc1 (stereo unspecified) | 744 mg/kg
31 | CC(C)(C)c1ccccc1 | 3040 mg/kg
32 | COP(=O)(OC)SCn1c(=O)oc2cc(Cl)cnc21 | 1180 mg/kg
33 | O=S(=O)(O)c1ccccc1O | 1900 mg/kg
34 | O=C(O)c1ccccc1Nc1c(Cl)cc(Cl)c2ccccc12 | 8500 mg/kg
35 | Nc1ncnc2[nH]ncc12 | 141 mg/kg
36 | CNC(=O)c1ccc(Cl)c(S(=O)(=O)NC)c1 | 1400 mg/kg
37 | CC(C)[N+](C)(CCOC(=O)C1c2ccccc2Oc2ccccc21)C(C)C | 370 mg/kg
38 | Clc1ccc2ncoc2c1 | 791 mg/kg
39 | CNS(=O)(=O)c1cc(Cl)c(Cl)cc1Cl | 5100 mg/kg
40 | ONc1ccccc1 | 100 mg/kg
41 | Cc1cc(C(C#N)c2ccc(Cl)cc2)c(Cl)cc1NC(=O)c1cc(I)cc(I)c1O (stereo unspecified) | 262 mg/kg
42 | CNC(=O)ON=C1SCCSC1(C)C | 0.27 mg/kg
43 | CCc1nn(-c2ccc(F)cc2)c2c(=O)[nH]ccc12 | 375 mg/kg
44 | CCCCOP(=O)(O)OCCCC | 3200 mg/kg and 3520 mg/kg

Row | Compound | LD50
45 | NC(=S)Nc1cccc(Cl)c1 | 25 mg/kg
46 | CCOP(=O)(OCC)SCSP(=O)(OCC)OCC | 12.8 mg/kg
47 | Cc1ccc2ccccc2c1 | 1630 mg/kg
48 | CC(C)=CCCC(C)CCOC=O (stereo unspecified) | 8400 mg/kg
49 | CCCOC(C(=O)OC1CCN(C)CC1)(c1ccccc1)c1ccccc1 | 2250 mg/kg
50 | C=C(C)C1CC=C(C)C(=O)C1 (racemic) | 1640 mg/kg
51 | CC(C)CC(C)OC(=O)CC(C(=O)OC(C)CC(C)C)S(=O)(=O)O (stereo unspecified) | 1750 mg/kg
52 | CCOP(=O)(Oc1ccc(Cl)cc1Cl)Oc1ccc(Cl)cc1Cl | 6200 mg/kg
53 | CC(C)C(=O)OC1CCC(N2CCCCC2)CC1 (stereo unspecified) | 3150 mg/kg
54 | COc1ccc(C(Oc2ccccc2)C2=NCCCN2)cc1F (stereo unspecified) | 1000 mg/kg
55 | COc1ccc(CNc2cc(C(O)CNC(C)(C)C)ccc2O)cc1 (stereo unspecified) | 1850 mg/kg
56 | COc1cc(C=CC(=O)N2CCN(CC(=O)N3CCCC3)CC2)cc(OC)c1OC | 1310 mg/kg
57 | CC(C)=CC1CC(C)CCO1 (stereo unspecified) | 4300 mg/kg
58 | O=C1CCCN1c1cccc2cccnc12 | 1650 mg/kg
59 | O=S(=O)(O)c1cccc(Nc2nc(Nc3ccc(C=Cc4ccc(Nc5nc(Nc6cccc(S(=O)(=O)O)c6)nc(N(CCO)CCO)n5)cc4S(=O)(=O)O)c(S(=O)(=O)O)c3)nc(N(CCO)CCO)n2)c1 | 1960 mg/kg
60 | CCC1CCC(C)NC1 (stereo unspecified) | 540 mg/kg
61 | CCCS(=O)(=O)c1c(Cl)cnc(Cl)c1Cl | 1100 mg/kg
62 | CC(CCN(C)C)N(C)C (stereo unspecified) | 750 mg/kg
63 | CCCN(CCC)c1c([N+](=O)[O-])cc(C(F)(F)F)c(N)c1[N+](=O)[O-] | 15400 mg/kg
64 | Oc1ccc(-c2ccccc2)cc1CN1CCOCC1 | 25 mg/kg
65 | CCNC1C2CCC(C2)C1c1ccccc1 (stereo unspecified) | 83 mg/kg
66 | Fc1c(Br)c(Br)c2nc(C(F)(F)F)[nH]c2c1Br | 9.64 mg/kg

Row | Compound | LD50
67 | COc1ccc(Cc2nccc3cc(OC)c(OC)cc23)cc1OC | 68.8 mg/kg
68 | CCN1CCCC1CNC(=O)c1cc(S(=O)(=O)CC)ccc1OC (stereo unspecified) | 2100 mg/kg
69 | CCCCCCCCCCNCCCCCCCC | 2400 mg/kg
70 | Nc1ccc2[nH]c3c(c2c1)CCCC3 | 374 mg/kg
71 | ClCC=CCCl | 89 mg/kg
72 | OC1OCC2C1C1(Cl)C(Cl)=C(Cl)C2(Cl)C1(Cl)Cl (stereo unspecified) | 1750 mg/kg
73 | CNC(=O)Oc1ccccc1C1OCCO1 | 25 mg/kg
74 | C1CN2CCC1CC2 | 81.2 mg/kg
75 | CCOC(=O)C1(c2ccccc2)CCCN(C)CC1 (stereo unspecified) | 580 mg/kg and 355 mg/kg
76 | CCOC(=O)C1=CN(C)C2CCCC(C)N2C1=O (stereo unspecified) | 378 mg/kg
77 | CC(C)=CCCC(C)CC(=O)O (stereo unspecified) | 2610 mg/kg
78 | Nc1ccc(N=Nc2ccccc2)cc1 | 1250 mg/kg
79 | CN(C)N=Nc1ccc(C(=O)O)cc1 | 320 mg/kg
80 | CN(CCc1ccccc1)N=O | 48 mg/kg
81 | COC(=O)CCC(Br)C(C)=O (stereo unspecified) | 600 mg/kg
82 | NC(=S)Cc1cccc2ccccc12 | 60 mg/kg
83 | COc1cc2c3c(c4ccc(OC)c(OC)c4c2cc1OC)CN1CCCC1C3 (stereo unspecified) | 65 mg/kg
84 | OC[C@@H](O)[C@H]1O[C@@H]2O[C@H](C(Cl)(Cl)Cl)O[C@@H]2[C@H]1O | 400 mg/kg
85 | CNC(=O)ON=C1CSCS1 | 13 mg/kg
86 | Cc1ccc(N)nc1 | 200 mg/kg
87 | CC(Cl)=CC(=O)Nc1ccc(O)cc1 | 1580 mg/kg
88 | CNc1nc(NC(C)C)nc(OC)n1 | 2400 mg/kg

Row | Compound | LD50
89 | Nc1cc2c(S(=O)(=O)O)cc(S(=O)(=O)O)cc2cc1S(=O)(=O)O | 13000 mg/kg
90 | OC(CCN1CCCCC1)(c1ccccc1)C1CCCC1 (stereo unspecified) | 628 mg/kg
91 | CC(=O)C=CC1C(C)C=C(C)CC1C (stereo unspecified) | 5200 mg/kg
92 | CCN1CCc2c3n(c4ccccc24)C(C(=O)OC)=CCC31 (stereo unspecified) | 2350 mg/kg
93 | CN(C)CC#N | 50 mg/kg
94 | Cc1cc(O)ccc1[N+](=O)[O-] | 1200 mg/kg
95 | CCCC[P+](CCCC)(CCCC)Cc1ccc(Cl)cc1Cl | 178 mg/kg
96 | CCN(CCCC(=O)C1CCCCC1)C(C)Cc1ccc(OC)cc1 (stereo unspecified) | 369 mg/kg
97 | Nc1ccc(CCNCC(O)c2ccccc2)cc1 (stereo unspecified) | 200 mg/kg
98 | Cc1cc(N)ccc1N | 98 mg/kg and 102 mg/kg
99 | CCOC(=O)CI | 50 mg/kg
100 | Cc1ccc2c(c1)C1CN(CCCC(=O)c3ccc(F)cc3)CCC1N2 (stereo unspecified) | 812 mg/kg
101 | C=CC(=C)Cl | 450 mg/kg
102 | Cc1ccsc1/C=C/C1=NCCCN1C | 926 mg/kg
103 | COc1ccc(CC(=S)N(C)C)cc1 | 22 mg/kg
104 | Cc1oc(C)c(C(=O)Nc2ccccc2)c1C | 1470 mg/kg
105 | CCC(=O)OC(CC)(c1ccccc1)C1CCN(C)C1 (stereo unspecified) | 460 mg/kg
106 | CCCCOC(=O)C(Cl)(Cl)Oc1ccccc1 | 1500 mg/kg
